From PubChem BioAssay AID276 (DTP/NCI, 2004) come the findings set out here.

This test relates to B6C3F1 mice, Lewis lung carcinoma iv, survival T/C. As to the kind of experiment: NCI In Vivo Anticancer Drug Screen. Data for tumor model Lewis Lung Carcinoma (intravenous) in B6C3F1 mice. As to conditions: endpoint: median survival time, higher = longer survival. The procedure, abridged:
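Read-out is survival, expressed as the treated-group measurement over the vehicle control-group measurement. Animals bore a transplantable tumor and were given compound.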

Setting [1] is: dose: 12.5 mg/kg/injection, schedule: Q01DX009 (ip), vehicle: saline.
The mark [2] stands for this setting: dose: 25.0 mg/kg/injection, schedule: Q01DX009 (ip), vehicle: saline.
The mark [3] stands for this setting: dose: 50.0 mg/kg/injection, schedule: Q01DX009 (ip), vehicle: saline.
[4] abbreviates: dose: 100.0 mg/kg/injection, schedule: Q01DX009 (ip), vehicle: saline.
[5] abbreviates: dose: 200.0 mg/kg/injection, schedule: Q01DX009 (ip), vehicle: saline.
The mark [6] stands for this setting: dose: 25.0 mg/kg/injection, schedule: Q01DX009 (ip), vehicle: saline with Tween-80.
[7] abbreviates: dose: 50.0 mg/kg/injection, schedule: Q01DX009 (ip), vehicle: saline with Tween-80.
Setting [8] is: dose: 100.0 mg/kg/injection, schedule: Q01DX009 (ip), vehicle: saline with Tween-80.
Where [9] appears, read: dose: 200.0 mg/kg/injection, schedule: Q01DX009 (ip), vehicle: saline with Tween-80.
[10] abbreviates: dose: 0.25 mg/kg/injection, schedule: Q01DX009 (ip), vehicle: saline.
[11] abbreviates: dose: 12.5 mg/kg/injection, schedule: Q01DX009 (ip), vehicle: saline with Tween-80.
Setting [12] is: dose: 2.0 mg/kg/injection, schedule: Q01DX009 (ip), vehicle: saline.
Setting [13] is: dose: 100.0 mg/kg/injection, schedule: Q01DX009 (ip), vehicle: water.
[14] abbreviates: dose: 1.0 mg/kg/injection, schedule: Q01DX009 (ip), vehicle: saline.
[15] abbreviates: dose: 6.25 mg/kg/injection, schedule: Q01DX009 (ip), vehicle: saline.

Molecules are shown by their SMILES. Where “and” joins values, the source holds several entries; their conditions need not be identical. Equal entries are not always repeated. Inconclusive results and toxic doses are left out.

In the case of `[Cl][Pt+2][Cl].[NH-]CC1(C[NH-])CCC1`, the T/C by setting is: (dose: 1.56 mg/kg/injection, schedule: Q01DX009 (ip), vehicle: suspension in saline) 96 % of control; (dose: 3.12 mg/kg/injection, schedule: Q01DX009 (ip), vehicle: suspension in saline) 105 % of control.
With `CS(=O)(=O)CS(=O)(=O)OCCCl`, the T/C by setting is: under setting [1], 107 % of control; under setting [2], 120 % of control; under setting [3], 284 % of control; under setting [4], 239 % of control.
`CN(N=O)C(N)=O`: the T/C runs as follows: (dose: 3.0 mg/kg/injection, schedule: Q01DX009 (ip), vehicle: saline) 123 % of control; under setting [2], 107 % of control.
On to `N=C(N)Sc1cc(O)ccc1O`, for which the T/C was 109 % of control under setting [1]; 95 % of control under setting [2]; 104 % of control under setting [3]; 99 % of control under setting [4]; 99 % of control under setting [5].
In the case of `CC(=O)Nc1cscc1NC(C)=O`, the T/C by setting is: under setting [6], 103 % of control; under setting [7], 101 % of control and 106 % of control; under setting [8], 98 % of control; under setting [9], 94 % of control and 108 % of control; (dose: 400.0 mg/kg/injection, schedule: Q01DX009 (ip), vehicle: saline with Tween-80) 112 % of control and 88 % of control.
For `CC(=O)[C@]1(O)Cc2c(O)c3c(c(O)c2[C@@H](OC2CC(N)C(O)C(C)O2)C1)C(=O)c1c(O)cccc1C3=O` (some centres not stated), the T/C reads like this: (dose: 0.03 mg/kg/injection, schedule: Q01DX009 (ip), vehicle: saline) 107 % of control; (dose: 0.06 mg/kg/injection, schedule: Q01DX009 (ip), vehicle: saline) 96 % of control; (dose: 0.12 mg/kg/injection, schedule: Q01DX009 (ip), vehicle: saline) 108 % of control; under setting [10], 117 % of control.
In the case of `CNC=O`, the T/C was 106 % of control under setting [4] and 110 % of control under setting [5].
On to `CC1c2ccccc2CC(CCN(C)C)c2ccccc21` (configuration not stated), for which the T/C was 100 % of control (dose: 6.25 mg/kg/injection, schedule: Q01DX009 (ip), vehicle: saline with Tween-80); 101 % of control under setting [11]; 107 % of control under setting [6]; 96 % of control under setting [7].
Take `CO[C@H]1Nc2c(ccc(C)c2O)C(=O)N2C=C(/C=C/C(N)=O)C[C@@H]12`: the T/C (dose: 0.06 mg/kg/injection, schedule: Q01DX009 (ip), vehicle: saline + alcohol) is 105 % of control; the T/C (dose: 0.12 mg/kg/injection, schedule: Q01DX009 (ip), vehicle: saline + alcohol) is 100 % of control; the T/C (dose: 0.25 mg/kg/injection, schedule: Q01DX009 (ip), vehicle: saline + alcohol) is 113 % of control.
As to `CCc1nc(N)nc(N)c1-c1ccc(Cl)c(N=[N+]=[N-])c1`, the T/C by setting is: (dose: 12.5 mg/kg/injection, schedule: Q01DX009 (ip), vehicle: distilled water + Tween-80) 97 % of control; (dose: 25.0 mg/kg/injection, schedule: Q01DX009 (ip), vehicle: distilled water + Tween-80) 100 % of control; (dose: 50.0 mg/kg/injection, schedule: Q01DX009 (ip), vehicle: distilled water + Tween-80) 100 % of control; (dose: 100.0 mg/kg/injection, schedule: Q01DX009 (ip), vehicle: distilled water + Tween-80) 106 % of control and 110 % of control; (dose: 200.0 mg/kg/injection, schedule: Q01DX009 (ip), vehicle: distilled water + Tween-80) 119 % of control.
Regarding `COc1cc(Cl)ccc1C`, the T/C is 102 % of control under setting [11]; 98 % of control under setting [6]; 100 % of control under setting [7]; 97 % of control under setting [8]; 97 % of control under setting [9].
As to `c1nc(N2CC2)c2cnn(C3CCCCO3)c2n1` (configuration not stated), the T/C runs as follows: under setting [7], 103 % of control; under setting [8], 107 % of control; under setting [9], 112 % of control.
Turning to `O=NN(CCCl)C(=O)NC1OC(CO)C(O)C(O)C1O` (configuration not stated), under setting [12], the T/C is 121 % of control.
As to `O=C1CN(CCN2CC(=O)N(CN3CCOCC3)C(=O)C2)CC(=O)N1CN1CCOCC1`, under setting [13], the T/C was 100 % of control.
Regarding `CN(C)C1C(=O)C(C(=O)NP(=O)(NCCCO)N(CCCl)CCCl)=C(O)C2(O)C(=O)C3=C(O)c4c(O)cccc4C(C)(O)C3CC12` (configuration not stated), the T/C is, setting by setting: under setting [6], 104 % of control; under setting [7], 119 % of control; under setting [8], 93 % of control.
Take `O=C1c2cccc3cc([N+](=O)[O-])cc(c23)C(=O)N1CCN1CCCC1`: the T/C by setting is: (dose: 3.0 mg/kg/injection, schedule: Q01DX009 (ip), vehicle: saline with Tween-80) 106 % of control; (dose: 6.0 mg/kg/injection, schedule: Q01DX009 (ip), vehicle: saline with Tween-80) 115 % of control.
As to `COc1cccc2c1C(=N)c1c(O)c3c(c(O)c1C2=O)C[C@@](O)(C(C)=O)C[C@@H]3OC1CC(N)C(O)C(C)O1` (some centres not stated), the T/C by setting is: under setting [14], 103 % of control; under setting [12], 96 % of control; (dose: 4.0 mg/kg/injection, schedule: Q01DX009 (ip), vehicle: saline) 105 % of control.
On to `O=C(O)C(O)C(O)C1[O][Sb][O]C1C(=O)O` (configuration not stated), for which the T/C runs as follows: under setting [15], 103 % of control; under setting [1], 108 % of control; under setting [2], 98 % of control; under setting [3], 108 % of control.
Turning to `BrCCC1(CCBr)CCCCC1`, the T/C (dose: 50.0 mg/kg/injection, schedule: Q01DX009 (ip), vehicle: water) was 104 % of control; the T/C under setting [13] was 103 % of control; the T/C (dose: 200.0 mg/kg/injection, schedule: Q01DX009 (ip), vehicle: water) is 98 % of control; the T/C (dose: 400.0 mg/kg/injection, schedule: Q01DX009 (ip), vehicle: water) is 96 % of control.
As to `Nc1n[nH]c(N)n1`, the T/C runs as follows: under setting [4], 109 % of control; under setting [5], 109 % of control; (dose: 400.0 mg/kg/injection, schedule: Q01DX009 (ip), vehicle: saline) 106 % of control; (dose: 800.0 mg/kg/injection, schedule: Q01DX009 (ip), vehicle: saline) 115 % of control.
Turning to `O=[N+]([O-])c1c(O)c(CNCCCO)cc(CNCCCO)c1O`, the T/C runs as follows: under setting [15], 100 % of control; under setting [1], 113 % of control; under setting [2], 102 % of control.
`Cc1cc(O)c2c(c1O)C(=O)C13C(=C2O)C(=O)C2C(O)C1C1C(O)C3C(=O)C3=C(O)c4c(O)cc(C)c(O)c4C(=O)C321` (configuration not stated): the T/C runs as follows: (dose: 0.78 mg/kg/injection, schedule: Q01DX009 (ip), vehicle: saline with Tween-80) 100 % of control; (dose: 1.56 mg/kg/injection, schedule: Q01DX009 (ip), vehicle: saline with Tween-80) 91 % of control; (dose: 3.12 mg/kg/injection, schedule: Q01DX009 (ip), vehicle: saline with Tween-80) 90 % of control.
As for `COC(=O)C[C@](O)(CCC(C)(C)O)C(=O)O[C@@H]1C(OC)=C[C@]23CCCN2CCc2cc4c(cc2[C@H]13)OCO4`, the T/C under setting [10] was 98 % of control and 104 % of control; the T/C (dose: 0.5 mg/kg/injection, schedule: Q01DX009 (ip), vehicle: saline) is 103 % of control and 106 % of control; the T/C under setting [14] was 94 % of control and 102 % of control.
As to `C[PH+](C)C.C[PH+](C)C.[Au]`, the T/C is, setting by setting: (dose: 0.62 mg/kg/injection, schedule: Q01DX009 (ip), vehicle: saline) 97 % of control; (dose: 1.25 mg/kg/injection, schedule: Q01DX009 (ip), vehicle: saline) 102 % of control; (dose: 2.5 mg/kg/injection, schedule: Q01DX009 (ip), vehicle: saline) 105 % of control; (dose: 10.0 mg/kg/injection, schedule: Q01DX009 (ip), vehicle: saline) 109 % of control.
Regarding `Cc1cc(N)c2ccccc2[n+]1CCCCCCCCCC[n+]1c(C)cc(N)c2ccccc21`, the T/C was 93 % of control (dose: 0.12 mg/kg/injection, schedule: Q01DX026 (ip), vehicle: dextrose); 104 % of control (dose: 0.25 mg/kg/injection, schedule: Q01DX026 (ip), vehicle: dextrose); 96 % of control (dose: 0.5 mg/kg/injection, schedule: Q01DX026 (ip), vehicle: dextrose); 101 % of control (dose: 0.75 mg/kg/injection, schedule: Q01DX009 (ip), vehicle: dextrose); 99 % of control (dose: 1.0 mg/kg/injection, schedule: Q01DX026 (ip), vehicle: dextrose); 95 % of control (dose: 1.5 mg/kg/injection, schedule: Q01DX009 (ip), vehicle: dextrose). Besides, the T/C was 103 % of control (dose: 2.0 mg/kg/injection, schedule: Q01DX026 (ip), vehicle: dextrose) and 104 % of control (dose: 3.0 mg/kg/injection, schedule: Q01DX009 (ip), vehicle: dextrose).
